Results taken from publication PMC10694292, “Increased sinusoidal export of drug glucuronides is a compensative mechanism in liver cirrhosis of mice” (Frontiers in Pharmacology, 2023).
Converted amounts (≈) assume the structure as drawn. Like-named read-outs stand apart in the source and are kept apart here.

Legend:
[1] = cited from earlier work
[2] = human, cited from earlier work
[3] = Drug cocktail i.v. in mice: 24 h urine, fraction of dose excreted; settings: for Fraction of dose in urine (24 h), cirrhotic vs control mice: i.v. drug cocktail; for Mean fraction of dose excreted to urine: mice, after drug cocktail administration
[4] = Drug cocktail i.v. in CCl4-cirrhotic and control mice: plasma concentrations and AUC; settings: for Measured plasma concentrations in cirrhotic mice vs PBPK-predicted concentrations: 15-120 min after cocktail, prediction with CYP activity at 11%; for Phase I metabolite in blood (formation), cirrhotic vs control, experimental data: i.v. drug cocktail
[5] = Chronic CCl4 treatment (12 months): blood chemistry and bile acids; format: in vivo, mice
Protocol: Male C57 Black 6/N 8–10-week-old mice were used (Janvier Labs, France). The mice were housed under standard environmental conditions with ad libitum feeding on a normal rodent diet (Ssniff, Soest, Germany) and with free access to water. To induce chronic liver damage, the mice were treated repeatedly with carbon tetrachloride (CCl4, 1 G/kg intraperitoneal) twice per week for 12 months ([Ghallab et al., 2019b]; [Holland et al., 2022]). The control mice received the vehicle only (olive oil, application volume 4 mL/kg intraperitoneal). On day 6, after the last CCl4/oil injection, blood as well as liver tissue samples were collected, as previously described ([Ghallab et al., 2016]). All experiments were approved by the local animal protection authorities (application number: 84-02.04.2017. A177).
ALT, AST, and ALP activities as well as albumin concentrations of plasma samples were measured with a 1:1 dilution in PBS using a Piccolo Xpress® chemistry analyzer and General Chemistry 13 panels (Hitado, Möhnesee, Germany).
Plasma concentrations of bile acids were analyzed using negative electrospray (ESI) liquid chromatography-tandem mass spectrometry (LC-MS/MS), as previously described ([Ghallab et al., 2022]).

[6] = Drug cocktail i.v. in mice: 2 h bile, fraction of dose excreted; settings: mice, 2 h after drug administration
[7] = optimized (mouse); ref Schenk et al., 2017; cited from earlier work
[8] = optimized, human; ref Krauss et al., 2017; cited from earlier work
[9] = humans, after a single oral dose; ref Knauf and Mutschler, 1998; FDA, 2017; cited from earlier work
[10] = mouse, in vivo
[11] = rat, measured; ref Bortolotti et al., 1985; cited from earlier work
[12] = DrugBank, predicted AlogPS, ref Wishart et al., 2017
[13] = DrugBank, predicted ChemAxon, ref Wishart et al., 2017
[14] = experimental, ref Vree and Verwey-van Wissen
[15] = experimental (morphine: logP uncharged), ref Avdeef, 1996
[16] = predicted ACD, ref Nguyen et al., 2016
[17] = predicted, ref Wishart et al., 2017

In the case of COc1ccc2c3c1O[C@H]1[C@@H](O[C@@H]4O[C@H](C(=O)O)[C@@H](O)[C@H](O)[C@H]4O)C=C[C@H]4[C@@H](C2)N(C)CC[C@@]341 [C6G, codeine-6-glucuronide], the Lipophilicity [1, 12] is listed as -0.23, the Solubility [1, 12] is listed as 4310 µg/mL (≈ 9.06 mM) and the Lipophilicity [1, 13] is listed as -2.8. For the same compound, the Fraction unbound [2, 14] was 0.44, the “Fraction of dose in urine (24 h), cirrhotic vs control mice” value [3] was “higher” and the “Mean fraction of dose excreted to urine” value [3] was 1%. The “Measured plasma concentrations in cirrhotic mice vs PBPK-predicted concentrations” value [4] was “much higher”.
With ClC(Cl)(Cl)Cl [CCl4, carbon tetrachloride] the “Plasma ALT” value ([5]; CCl4 1 g/kg i.p. twice per week, 12 months, vs oil) was “increased”, the ALP ([5]; CCl4 12 months vs oil) was “no significant changes” and the Albumin ([5]; CCl4 12 months vs oil) was “no significant changes”. For the same compound, the “Plasma AST” value ([5]; CCl4 12 months vs oil) was “increased” and the “Serum bile acid levels” value ([5]; CCl4 12 months vs oil) was “increased”.
In the case of COc1ccc2c3c1O[C@H]1[C@@H](O)C=C[C@H]4[C@@H](C2)N(C)CC[C@@]341 [Codeine, codeine], the Lipophilicity ([1]; DrugBank, experimental, ref Wishart et al., 2017) is listed as 1.39, the Lipophilicity [1, 15] is listed as 1.19 and the Fraction unbound ([2]; DrugBank, ref Wishart et al., 2017) is listed as 0.75. For the same compound, the Fraction unbound [2, 14] was 0.44, the “Mean fraction of dose excreted to bile” value [6] was “below 1%” and the “Mean fraction of dose excreted to urine” value [3] was 3%. The “Measured plasma concentrations of parent compound in cirrhotic mice” value ([4]; accompanying increased glucuronides) was “decreased”.
In the case of CN1CC[C@]23c4c5ccc(O)c4O[C@H]2[C@@H](O)C=C[C@H]3[C@H]1C5 [Morphine, morphine], the “Mean fraction of dose excreted to urine” value [3] is reported as 1%.
For COc1ccc2c3c1O[C@H]1[C@@H](O)C=C[C@H]4[C@@H](C2)NCC[C@@]341 [Norcodeine, norcodeine], the Lipophilicity [1, 12] is given as 0.99, the Lipophilicity [1, 13] is given as 0.96 and the Lipophilicity [1, 15] is given as 0.69. For the same compound, the “pKa (Base)” value ([1]; ref Avdeef, 1996) was 9.22, the Fraction unbound [2, 14] was 0.765 and the “Mean fraction of dose excreted to urine” value [3] was 3%. For the same compound, the “Phase I metabolite in blood (formation), cirrhotic vs control, experimental data” value [4] was “reduced formation”.
In the case of OCc1ncc2n1-c1ccc(Cl)cc1C(c1ccccc1F)=NC2 [OH-MDZ, 1-hydroxymidazolam], the Lipophilicity [1, 12] is listed as 3.09, the Solubility [1, 12] is listed as 25.4 µg/mL (≈ 0.0743 mM) and the Lipophilicity [1, 13] is listed as 2.48. For the same compound, the Lipophilicity [1, 16] was 2.5, the “pKa, ampholyte, first value” [1, 16] was 3.63 and the “pKa, ampholyte, second value” [1, 16] was 13.6. For the same compound, the “pKa, ampholyte, first value” [1, 17] was 4.99, the “pKa, ampholyte, second value” [1, 17] was 13.95 and the Lipophilicity ([1]; ref Vossen et al., 2007) was 2.6. The Fraction unbound ([2]; measured, ref Nguyen et al., 2016) was 0.15, the Fraction unbound [7] was 0.01 and the “Mean fraction of dose excreted to urine” value [3] was “below 1%”.
For O=C(O)[C@H]1O[C@@H](OCc2ncc3n2-c2ccc(Cl)cc2C(c2ccccc2F)=NC3)[C@H](O)[C@@H](O)[C@@H]1O [OH-MDZ-G, 1-hydroxymidazolam glucuronide], the Lipophilicity ([1]; ref Vossen et al., 2007) is listed as 1.4, the “Mean fraction of dose excreted to bile” value [6] is listed as 1.2% and the “Fraction of dose in urine (24 h), cirrhotic vs control mice” value [3] is listed as “higher”. The “Measured plasma concentrations in cirrhotic mice vs PBPK-predicted concentrations” value [4] was “much higher”.
For CC(C)NC(=O)NS(=O)(=O)c1cnccc1Nc1cccc(CO)c1 [OH-torsemide, hydroxy torsemide], the Fraction unbound [8] is given as 0.00191, the Lipophilicity [1, 12] is given as 0.86 and the Solubility [1, 12] is given as 89.8 µg/mL (≈ 0.246 mM). For the same compound, the Lipophilicity [1, 13] was 0.49, the Lipophilicity ([1]; optimized (mouse), ref Schenk et al., 2017) was 0.75 and the Lipophilicity ([1]; optimized, human, ref Krauss et al., 2017) was 2.139. For the same compound, the Recovered from urine [9] was “about 10%”, the “Mean fraction of dose excreted to bile” value [6] was 0.8% and the “Mean fraction of dose excreted to urine” value [3] was 11%. The “Phase I metabolite in blood (formation), cirrhotic vs control, experimental data” value [4] was “decreased formation”.
For Cn1c(=O)[nH]c2ncn(C)c2c1=O [Paraxanthine, 1,7-Dimethylxanthine], the “Mean fraction of dose excreted to urine” value [10] is given as 2%, the Solubility ([1]; DrugBank, AlogPS prediction, ref Wishart et al., 2017) is given as 9130 µg/mL (≈ 50.7 mM) and the Lipophilicity [1, 12] is given as -0.63. The Lipophilicity [1, 13] was 0.27, the pKa ([1]; ref FooDB) was “Neutral” and the Fraction unbound ([2]; measured, ref Lelo et al., 1986) was 0.56. For the same compound, the Fraction unbound [11] was 0.85.
